According to patent publication US20260364214A1, “MULTIVALENT FIBROBLAST ACTIVATION PROTEIN LIGANDS FOR TARGETED DELIVERY APPLICATIONS” (Philochem AG, priority 2022, published 2026):

Legend:
[1] = test system: SK-RC-52.hFAP tumors; experiment: Quantitative biodistribution in SK-RC-52.hFAP tumor bearing mice; format: in vivo, mouse (female athymic Balb/c AnNRj-Foxn1); conditions: i.v. 250 nmol/kg, 50 MBq/kg
Procedure, shortened: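 Female athymic Balb/c nude mice carried subcutaneous SK-RC-52.hFAP tumors (5 million cells, ~300 mm^3). 177Lu-labeled conjugates were given i.v. at 250 nmol/kg, 50 MBq/kg. Tissues gamma-counted at several time points as %ID/g±SD, tumor values corrected for growth rate; tumor-to-organ ratios derived.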

[2] = Determination of Log D7.4 (1-octanol/PBS); format: physicochemical; conditions: 1-octanol/PBS pH 7.4; 177Lu-labeled
Experimental: The lipophilicity of ^177Lu-ESV6, ^177Lu-Bi-ESV6, ^177Lu-Tri-ESV6 and ^177Lu-FAP-2286 was determined as follows. 100 μL aliquots of the radioligand (~1 MBq) in PBS buffer were added to PBS buffer (500 μL, pH 7.4) and 1-octanol (600 μL). The two-layer mixture were vigorously shaken for 10 minutes on a vortex mixer and then centrifuged at 700 rpm for 5 min to facilitate the separation. 100 μL aliquots of both layers were measured in a Packard Cobra Gamma Counter and the partition coefficient was determined by dividing cpm (octanol) by cpm (PBS) and indicated as Log D7.4. • Log D7.4 (^177Lu-ESV6): −4.13 • Log D7.4 (^177Lu-Bi-ESV6): −3.75 • Log D7.4 (^177Lu-Tri-ESV6): −3.10 • Log D7.4 (^177Lu-FAP-2286): −3.05

Compound: N#C[C@@H]1CC(F)(F)CN1C(=O)CNC(=O)c1ccnc2c(NC(=O)CCC(=O)NCCNC(=O)CCC(C(=O)O)N3CCN(CC(=O)[O-])CCN(CC(=O)[O-])CCN(CC(=O)[O-])CC3)cccc12.[177Lu+3] (stereo partly drawn) [^177Lu-ESV6-DOTAGA, reference compound]
- Tumor to organs ratio, Blood ([1]; 24 h): 628.54
- Injected dose per gram, Blood ([1]; 24 h post injection): 0.00 % ID/g
- Tumor to organs ratio, Blood ([1]; 48 h): 2173.00
- Injected dose per gram, Blood ([1]; 48 h post injection): 0.00 % ID/g
- Tumor to organs ratio, Heart ([1]; 24 h): 497.97
- Injected dose per gram, Heart ([1]; 24 h post injection): 0.01 % ID/g
- Tumor to organs ratio, Heart ([1]; 48 h): 314.15
- Injected dose per gram, Heart ([1]; 48 h post injection): 0.00 % ID/g
- Tumor to organs ratio, Intestine ([1]; 24 h): 240.54
- Injected dose per gram, Intestine ([1]; 24 h post injection): 0.01 % ID/g
- Tumor to organs ratio, Intestine ([1]; 48 h): 232.61
- Injected dose per gram, Intestine ([1]; 48 h post injection): 0.01 % ID/g
- Tumor to organs ratio, Kidney ([1]; 24 h): 5.41
- Injected dose per gram, Kidney ([1]; 24 h post injection): 0.47 % ID/g
- Tumor to organs ratio, Kidney ([1]; 48 h): 4.22
- Injected dose per gram, Kidney ([1]; 48 h post injection): 0.28 % ID/g
- Tumor to organs ratio, Liver ([1]; 24 h): 37.66
- Injected dose per gram, Liver ([1]; 24 h post injection): 0.07 % ID/g
- Tumor to organs ratio, Liver ([1]; 48 h): 20.54
- Injected dose per gram, Liver ([1]; 48 h post injection): 0.06 % ID/g
- Tumor to organs ratio, Lung ([1]; 24 h): 977.01
- Injected dose per gram, Lung ([1]; 24 h post injection): 0.01 % ID/g
- Tumor to organs ratio, Lung ([1]; 48 h): 805.04
- Injected dose per gram, Lung ([1]; 48 h post injection): 0.01 % ID/g
- Tumor to organs ratio, Muscle ([1]; 24 h): 159.12
- Injected dose per gram, Muscle ([1]; 24 h post injection): 0.03 % ID/g
- Tumor to organs ratio, Muscle ([1]; 48 h): 142.88
- Injected dose per gram, Muscle ([1]; 48 h post injection): 0.01 % ID/g
- Tumor to organs ratio, Spleen ([1]; 24 h): 158.68
- Injected dose per gram, Spleen ([1]; 24 h post injection): 0.03 % ID/g
- Tumor to organs ratio, Spleen ([1]; 48 h): 503.00
- Injected dose per gram, Spleen ([1]; 48 h post injection): 0.01 % ID/g
- Tumor to organs ratio, Tail ([1]; 24 h): 48.95
- Injected dose per gram, Tail ([1]; 24 h post injection): 0.05 % ID/g
- Tumor to organs ratio, Tail ([1]; 48 h): 45.61
- Injected dose per gram, Tail ([1]; 48 h post injection): 0.03 % ID/g
- Injected dose per gram, Tumor ([1]; 24 h post injection): 2.53 % ID/g
- Injected dose per gram, Tumor ([1]; 48 h post injection): 1.19 % ID/g
- Log D7.4 [2]: −4.13
